Measurements from patent US7655600B2, “1-(azolin-2-yl)amino-1,2-diphenylethane compounds for combating insects, arachnids and nematodes” (BASF Aktiengesellschaft, priority 2003, dated 2010).

Tested on: Spodoptera eridania
Experiment: Southern armyworm (Spodoptera eridania), 2nd instar larvae, on dipped Sieva lima bean foliage
Format: in vivo
Settings: 300 ppm, observation at 5 days
Description: The active compounds were formulated • a. for testing the activity against Aphis gossypii, Myzus persicae, and Aphis fabae, as 50:50 acetone:water solutions amended with 100 ppm Kinetic® (surfactant), • b. for testing the activity against Spodoptera eridania as a 10.000 ppm solution in a mixture of 35% acetone and water, which was diluted with water, if needed,
After the experiments were completed, in each case the lowest concentration was determined at which the compound still caused an 75 to 100% inhibition or mortality in comparison with untreated controls (limit or minimal concentration).
Foliage of two Sieva lima beans plants at the first expanded true-leaf stage that are contained within a single 3.8 cm square plastic pot are dipped into the test solution with agitation for 3 seconds and allowed to dry in a hood. The pot is then placed in a 25.4 cm plastic zipper top bag and infested with ten 2nd instar caterpillars. At 5 days, observations are made of mortality, reduced feeding, or any interference with normal molting.

Cc1cccc(CC(NC2=NCC(C)S2)c2ccccc2)c1 (stereo not shown) [Example 16]
mortality in comparison with untreated controls: over 50%
